In US9770023B2, “Active compound combinations comprising phenylamidine compounds and further fungicides” (BAYER CROPSCIENCE AKTIENGESELLSCHAFT, priority 2014, dated 2017):

Experiments:
Phakopsora pachyrhizi = assay: in vivo preventive test on Phakopsora test (soybeans)
Procedure: To produce a suitable preparation of active compound, 1 part by weight of active compound is mixed with the stated amounts of solvent and emulsifier, and the concentrate is diluted with water to the desired concentration. To test for preventive activity, young plants are sprayed with the preparation of active compound at the stated rate of application. After the spray coating has dried on, the plants are inoculated with an aqueous spore suspension of the causal agent of soybean rust (Phakopsora pachyrhizi) and stay for 24 h without light in an incubation cabinet at approximately 24° C. and a relative atmospheric humidity of 95%. The plants remain in the incubation cabinet at approximately 24° C. and a relative atmospheric humidity of approximately 80% and a day/night interval of 12 h.
The test is evaluated 7 days after the inoculation. 0% means an efficacy which corresponds to that of the untreated control, while an efficacy of 100% means that no disease is observed.

[1] = tested on: Blumeria graminis f.sp. hordei; assay: in vivo preventive Blumeria test (barley)
Procedure: [table] To produce a suitable preparation of active compound, 1 part by weight of active compound or active compound combination is mixed with the stated amounts of solvent and emulsifier, and the concentrate is diluted with water to the desired concentration. To test for preventive activity, young plants are sprayed with the preparation of active compound or active compound combination at the stated rate of application. After the spray coating has been dried, the plants are dusted with spores of Blumeria graminis f.sp. hordei. The plants are placed in the greenhouse at a temperature of approximately 18° C. and a relative atmospheric humidity of approximately 80% to promote the development of mildew pustules. The test is evaluated 7 days after the inoculation. 0% means an efficacy which corresponds to that of the untreated control, while an efficacy of 100% means that no disease is observed.

Alternaria solani = assay: in vivo preventive test on Alternaria test (tomatoes)
Procedure: [table] To produce a suitable preparation of active compound, 1 part by weight of active compound is mixed with the stated amounts of solvent and emulsifier, and the concentrate is diluted with water to the desired concentration. To test for preventive activity, young plants are sprayed with the preparation of active compound at the stated rate of application. After the spray coating has dried on, the plants are inoculated with an aqueous spore suspension of Alternaria solani. The plants are then placed in an incubation cabinet at approximately 20° C. and a relative atmospheric humidity of 100%. The test is evaluated 3 days after the inoculation. 0% means an efficacy which corresponds to that of the untreated control while an efficacy of 100% means that no disease is observed.

Pyrenophora teres = assay: in vivo preventive Pyrenophora teres test (barley); conditions: Table F1, 8 days after inoculation
Procedure: (§1) [table] To produce a suitable preparation of active compound, 1 part by weight of active compound or active compound combination is mixed with the stated amounts of solvent and emulsifier, and the concentrate is diluted with water to the desired concentration. To test for preventive activity, young plants are sprayed with the preparation of active compound or active compound combination at the stated rate of application. After the spray coating has been dried, the plants are sprayed with a spore suspension of Pyrenophora teres. The plants remain for 48 hours in an incubation cabinet at approximately 20° C. and a relative atmospheric humidity of approximately 100%. The plants are placed in the greenhouse at a temperature of approximately 20° C. and a relative atmospheric humidity of approximately 80%. The test is evaluated 8 days after the inoculation. 0% means an efficacy which corresponds to that of the untreated control, while an efficacy of 100% means that no disease is observed.

Septoria tritici = assay: in vivo preventive Septoria tritici test (wheat)
Procedure: as §1, with “suspension of Septoria tritici. The plants” for “suspension of Pyrenophora teres. The plants”, “of approximately 100% and afterwards for 60 hours at approximately 15° C. in a translucent incubation cabinet at a relative atmospheric humidity of approximately 100%. The” for “of approximately 100%. The”, “of approximately 15° C. and” for “of approximately 20° C. and”, “is evaluated 21 days after” for “is evaluated 8 days after”

Puccinia triticina = assay: in vivo preventive Puccinia triticina test (wheat); conditions: Table E1, 8 days after inoculation
Procedure: To produce a suitable preparation of active compound, 1 part by weight of active compound or active compound combination is mixed with the stated amounts of solvent and emulsifier, and the concentrate is diluted with water to the desired concentration.
To test for preventive activity, young plants are sprayed with the preparation of active compound or active compound combination at the stated rate of application. After the spray coating has been dried, the plants are sprayed with a spore suspension of Puccinia triticina. The plants remain for 48 hours in an incubation cabinet at approximately 20° C. and a relative atmospheric humidity of approximately 100%. The plants are placed in the greenhouse at a temperature of approximately 20° C. and a relative atmospheric humidity of approximately 80%.
The test is evaluated 8 days after the inoculation. 0% means an efficacy which corresponds to that of the untreated control, while an efficacy of 100% means that no disease is observed.

Leptosphaeria nodorum = assay: in vivo preventive Leptosphaeria nodorum test (wheat); conditions: Table C1, 8 days after inoculation
Procedure: as §1, with “suspension of Leptosphaeria nodorum. The plants” for “suspension of Pyrenophora teres. The plants”, “of approximately 25° C. and” for “of approximately 20° C. and”

[2] = Table B2, 7 days after inoculation, 40 ppm a.i.
[3] = Table A2, 3 days after inoculation, 2 ppm a.i.
[4] = Table D2, 7 days after inoculation, 0.5 ppm a.i.
[5] = Table D2, 7 days after inoculation, 1 ppm a.i.
[6] = Table G2, 21 days after inoculation, 40 ppm a.i.
[7] = Table D3, 7 days after inoculation, 10 ppm a.i.
[8] = Table A1, 3 days after inoculation, 1 ppm a.i.
[9] = Table G1, 21 days after inoculation, 20 ppm a.i.
[10] = Table D3, 7 days after inoculation, 2 ppm a.i.
[11] = Table B2, 7 days after inoculation, 10 ppm a.i.
[12] = Table A2, 3 days after inoculation, 4 ppm a.i.
[13] = Table D1, 7 days after inoculation, 0.1 ppm a.i.
[14] = Table D1, 7 days after inoculation, 0.2 ppm a.i.
[15] = Table B1, 7 days after inoculation, 40 ppm a.i.

## CO/C=C(/C(=O)OC)c1ccccc1COc1cccc(C(F)(F)F)n1 [(C.2), picoxystrobin]
Phakopsora pachyrhizi; Table D2, 7 days after inoculation, 2 ppm a.i.
  Efficacy in % found: 30%
[1]; Table B1, 7 days after inoculation, 20 ppm a.i.
  Efficacy in % found: 44%

## O=C(NCCc1ncc(C(F)(F)F)cc1Cl)c1ccccc1C(F)(F)F [(B.2), fluopyram]
[1]; [2]
  Efficacy in % found: 11%
Alternaria solani; [3]
  Efficacy in % found: 30%

## CO/C=C(/C(=O)OC)c1ccccc1Oc1cc(Oc2ccccc2C#N)ncn1 [(C.1), azoxystrobin]
Phakopsora pachyrhizi; [4]
  Efficacy in % found: 20%
Phakopsora pachyrhizi; [5]
  Efficacy in % found: 68%
Phakopsora pachyrhizi; Table D3, 7 days after inoculation, 0.5 ppm a.i.
  Efficacy in % found: 23%
Pyrenophora teres; 20 ppm a.i.
  Efficacy in % found: 71%
Alternaria solani; Table A2, 3 days after inoculation, 1 ppm a.i.
  Efficacy in % found: 46%
Septoria tritici; Table G2, 21 days after inoculation, 10 ppm a.i.
  Efficacy in % found: 0%
Puccinia triticina; 10 ppm a.i.
  Efficacy in % found: 71%

## COC(=O)N(OC)c1ccccc1COc1ccn(-c2ccc(Cl)cc2)n1 [(C.3), pyraclostrobin]
Leptosphaeria nodorum; 40 ppm a.i.
  Efficacy in % found: 57%
Septoria tritici; [6]
  Efficacy in % found: 88%

## CC(C)c1ccc(Cl)cc1CN(C(=O)c1c(C(F)F)nn(C)c1F)C1CC1 [(B.8), N-(5-chloro-2-isopropylbenzyl)-N-cyclopropyl-3-(difluoromethyl)-5-fluoro-1-methyl-1H-pyrazole-4-carboxamide]
Phakopsora pachyrhizi; Table D1, 7 days after inoculation, 20 ppm a.i.
  Efficacy in % found: 0%
Phakopsora pachyrhizi; [7]
  Efficacy in % found: 0%
Leptosphaeria nodorum; 20 ppm a.i.
  Efficacy in % found: 0%
Alternaria solani; [8]
  Efficacy in % found: 45%
Septoria tritici; [9]
  Efficacy in % found: 29%

## OC(Cc1ccccc1Cl)(Cn1nc[nH]c1=S)C1(Cl)CC1 (centres unmarked) [(A.3), prothioconazole]
Phakopsora pachyrhizi; Table D3, 7 days after inoculation, 1 ppm a.i.
  Efficacy in % found: 0%
Phakopsora pachyrhizi; [10]
  Efficacy in % found: 35%
[1]; [11]
  Efficacy in % found: 22%
[1]; [2]
  Efficacy in % found: 22%
Alternaria solani; [3]
  Efficacy in % found: 0%
Alternaria solani; [12]
  Efficacy in % found: 24%
Septoria tritici; [9]
  Efficacy in % found: 0%

## CCN(C)/C=N/c1cc(C)c(Oc2ccccc2)cc1C [(I-d), N′-(2,5-dimethyl-4-phenoxyphenyl)-N-ethyl-N-methylimidoformamide]
Phakopsora pachyrhizi; Table D1, 7 days after inoculation, 0.05 ppm a.i.
  Efficacy in % found: 0%
Phakopsora pachyrhizi; [13]
  Efficacy in % found: 23%
Phakopsora pachyrhizi; [14]
  Efficacy in % found: 86%
Phakopsora pachyrhizi; Table D2, 7 days after inoculation, 0.05 ppm a.i.
  Efficacy in % found: 0%
Phakopsora pachyrhizi; Table D2, 7 days after inoculation, 0.1 ppm a.i.
  Efficacy in % found: 0%
Phakopsora pachyrhizi; Table D2, 7 days after inoculation, 0.2 ppm a.i.
  Efficacy in % found: 23%
Phakopsora pachyrhizi; Table D3, 7 days after inoculation, 0.05 ppm a.i.
  Efficacy in % found: 0%
Phakopsora pachyrhizi; Table D3, 7 days after inoculation, 0.1 ppm a.i.
  Efficacy in % found: 0%
Leptosphaeria nodorum; 80 ppm a.i.
  Efficacy in % found: 29%
Pyrenophora teres; 80 ppm a.i.
  Efficacy in % found: 29%
[1]; [15]
  Efficacy in % found: 33%
[1]; [11]
  Efficacy in % found: 0%
[1]; Table B2, 7 days after inoculation, 20 ppm a.i.
  Efficacy in % found: 0%
[1]; [2]
  Efficacy in % found: 0%
[1]; Table B2, 7 days after inoculation, 80 ppm a.i.
  Efficacy in % found: 22%
Alternaria solani; Table A1, 3 days after inoculation, 0.5 ppm a.i.
  Efficacy in % found: 8%
Alternaria solani; [8]
  Efficacy in % found: 15%
Alternaria solani; Table A2, 3 days after inoculation, 0.1 ppm a.i.
  Efficacy in % found: 0%
Alternaria solani; Table A2, 3 days after inoculation, 0.2 ppm a.i.
  Efficacy in % found: 0%
Septoria tritici; [9]
  Efficacy in % found: 14%
Septoria tritici; Table G1, 21 days after inoculation, 40 ppm a.i.
  Efficacy in % found: 14%
Septoria tritici; [6]
  Efficacy in % found: 0%
Septoria tritici; Table G2, 21 days after inoculation, 80 ppm a.i.
  Efficacy in % found: 0%
Puccinia triticina; 40 ppm a.i.
  Efficacy in % found: 57%

## Cn1cc(C(=O)Nc2ccccc2-c2cc(F)c(F)c(F)c2)c(C(F)F)n1 [(B.3), fluxapyroxad]
Leptosphaeria nodorum; 40 ppm a.i.
  Efficacy in % found: 14%
Septoria tritici; [6]
  Efficacy in % found: 13%

## CON=C(C(=O)OC)c1ccccc1CON=C(C)c1cccc(C(F)(F)F)c1 [(C.4), trifloxystrobin]
Phakopsora pachyrhizi; [10]
  Efficacy in % found: 0%
Leptosphaeria nodorum; 40 ppm a.i.
  Efficacy in % found: 14%
[1]; [11]
  Efficacy in % found: 11%
Alternaria solani; [8]
  Efficacy in % found: 30%
Alternaria solani; [12]
  Efficacy in % found: 73%
Septoria tritici; Table G2, 21 days after inoculation, 20 ppm a.i.
  Efficacy in % found: 75%

## Cn1cc(C(=O)Nc2cccc3c2[C@@H]2CC[C@H]3C2=C(Cl)Cl)c(C(F)F)n1 (racemic) [(B.6), benzovindiflupyr]
Phakopsora pachyrhizi; Table D2, 7 days after inoculation, 0.25 ppm a.i.
  Efficacy in % found: 8%
Phakopsora pachyrhizi; [4]
  Efficacy in % found: 8%
Phakopsora pachyrhizi; [5]
  Efficacy in % found: 15%
Pyrenophora teres; 80 ppm a.i.
  Efficacy in % found: 57%
[1]; [15]
  Efficacy in % found: 11%
Alternaria solani; Table A2, 3 days after inoculation, 0.5 ppm a.i.
  Efficacy in % found: 22%
Septoria tritici; [6]
  Efficacy in % found: 38%
Puccinia triticina; 40 ppm a.i.
  Efficacy in % found: 86%

## CC(C)(C)C(O)(CCc1ccc(Cl)cc1)Cn1cncn1 (centres unmarked) [(A.4), tebuconazole]
Phakopsora pachyrhizi; [13]
  Efficacy in % found: 0%
Phakopsora pachyrhizi; [14]
  Efficacy in % found: 30%
Alternaria solani; [8]
  Efficacy in % found: 0%

## Cn1cc(C(=O)Nc2ccc(F)cc2-c2ccc(Cl)c(Cl)c2)c(C(F)F)n1 [(B.1), bixafen]
Phakopsora pachyrhizi; Table D1, 7 days after inoculation, 10 ppm a.i.
  Efficacy in % found: 0%
Phakopsora pachyrhizi; [7]
  Efficacy in % found: 0%
Leptosphaeria nodorum; 80 ppm a.i.
  Efficacy in % found: 0%
[1]; [2]
  Efficacy in % found: 0%
Alternaria solani; [8]
  Efficacy in % found: 40%
Septoria tritici; [6]
  Efficacy in % found: 0%
